By MIC is commonly meant the smallest concentration in the dilution series that meets the test's criterion for growth inhibition.

Structures are written as SMILES. ≈ marks a conversion by molar mass, not a printed value. Read-outs that look alike come from different tables or passages of the source.

We go through two compounds from patent US20220087990A1, “APPLICATION OF RIFAMYCIN-QUINOLIZIDONE CONJUGATE MOLECULE AND PHARMACEUTICALLY ACCEPTABLE SALT THEREOF” (priority 2019, published 2022).

In assay [1] the test system is Staphylococcus aureus ATCC 29213. The experiment in a line: MIC measured by fluid broth microdilution method (quality control). Type of assay: cell-based. Conditions: ATCC29213.
Assay [2] shares this test system. The experiment in a line: MIC measured by agar dilution method, quality control strain. Conditions: strain 100, MSSA QC strain. The assay is classed as cell-based. How it is done: (§1) Spontaneous mutation and minimal inhibit concentration (MIC) tested by agar dilution method, the above compounds are respectively prepared into a stock solution (100X) with a concentration 100 times the highest final concentration in corresponding solvents and used on the same day. Before use, I is further diluted with DMSO; and oxacillin, rifampicin and levofloxacin are further diluted with water.
(§2) Bacterial isolates: Staphylococcus aureus isolates are retrieved from the −80° C. storage room of Micromyx Culture Collection, thawed, plated onto Tryptic Soy Agar+5% sheep blood (Remel; Lenexa, Kans.), and then incubated aerobically at 35° C. overnight. S. aureus ATCC 29213 (MRSA; MMX 0100) was included during testing only for the purpose of quality control. Test Media: The isolates were tested in both the agar dilution MIC assay and the spontaneous mutation assay using Mueller-Hinton Agar (MHA; BD/BBL; Lot No. 6229829 & 4216798). Inocula of each isolate were suspended in cation-adjusted Mueller-Hinton Broth (CAMHB) (BD/BBL; Lot Nos. 5257869 & 6258541). Sodium chloride (Sigma-Aldrich; Lot No. SLBL0434V) was added to CAMHB at a final concentration of 2% when testing oxacillin. Dilutions of bacterial cell suspensions for the purpose of performing colony counts were also made in CAMHB.
(§3) MIC measured by agar dilution method: according to the recommendation from the Clinical and Laboratory Standards Institute (CLSI), the MIC value is measured by the agar dilution method. […] Each test agent was combined with molten MHA agar (50-55° C.) at a ratio of 0.2 mL of 100× test agent to 19.8 mL agar in a sterile tube, mixed gently, and then poured into a sterile petri plate (BD Falcon). Plates were allowed to solidify at room temperature. A 0.5 McFarland standard bacterial suspension was prepared, diluted 1:10 in CAMHB, and transferred to the wells of a stainless steel replicator block before stamping onto plates containing drug, resulting in 10^4 CFU/spot. After allowing the inoculum to dry on the surface of the agar, the plates were inverted, incubated aerobically at 35° C. for 20-24 hr, and inspected for growth.
In parallel experiments, a standard bacterium suspension with a […] turbidity of 0.5 is prepared as a standard inoculum for agar dilution analysis (10^4 CFU/point). […] In this step, the broths and drugs used in the spontaneous mutation analysis are used to confirm that the concentration of the drug stock solution can inhibit the growth of the standard inoculum. The quality of the levofloxacin stock solution is controlled by a standard inoculum and levofloxacin of 8-0.008 μg/mL, and separate agar dilution analysis is performed. […]
For orientation: Agar dilution tests growth on a series of plates holding different concentrations.

The subject of assay [3] is methicillin-resistant Staphylococcus aureus (MRSA) isolates. The assay is described as follows: MIC measured by agar dilution method (CLSI). Conditions: for MIC: Staphylococcus aureus, MRSA. The assay is classed as cell-based. How it is done: as §1, §2, §3
Assay [4] relates to Staphylococcus aureus ATCC 29213. Conditions: agar dilution; cited from earlier work.
[5] abbreviates: strain 3085, LEV^S RIF^S, agar dilution.
The mark [6] stands for this setting: strain 3090, LEV^R RIF^S, agar dilution.
The mark [7] stands for this setting: strain 3094, LEV^R RIF^S, agar dilution.
Where [8] appears, read: strain 3098, LEV^S RIF^S, agar dilution.
Setting [9] is: strain 3265, LEV^R RIF^S, agar dilution.
Setting [10] is: strain 3266, LEVR RIFS, agar dilution.
The mark [11] stands for this setting: strain 3270, LEV^R RIF^S, agar dilution.
Where [12] appears, read: strain 3271, LEV^R RIF^S, agar dilution.
Setting [13] is: strain 3277, LEV^S RIF^S, agar dilution.
The mark [14] stands for this setting: strain 3278, LEV^S RIF^S, agar dilution.
[15] abbreviates: strain 6312, LEV^R RIF^S, agar dilution.
The mark [16] stands for this setting: strain 6313, LEV^R RIF^S, agar dilution.
Setting [17] is: strain 6315, LEV^R RIF^S, agar dilution.
Setting [18] is: strain 6498, LEV^R RIF^S, agar dilution.
Where [19] appears, read: strain 6501, LEV^R RIF^S, agar dilution.
Setting [20] is: strain 6505, LEV^R RIF^S, agar dilution.
Where [21] appears, read: strain 7771, LEV^R RIF^S, agar dilution.
[22] abbreviates: strain 7772, LEV^S RIF^S, agar dilution.
[23] abbreviates: strain 7773, LEV^R RIF^S, agar dilution.
[24] abbreviates: strain 7774, LEV^R RIF^S, agar dilution.
The mark [25] stands for this setting: strain 7775, LEV^R, agar dilution.

In the case of `C[C@H]1COc2c(N3CCN(C)CC3)c(F)cc3c(=O)c(C(=O)O)cn1c23` [Levofloxacin], the MIC in assay [1] is 0.25 mg/L (≈ 0.692 µM); in assay [2] it was 0.25 mg/L (≈ 0.692 µM); in assay [3] (read-out: MIC over all strains under test) it was 0.25 to 64 mg/L (≈ 0.692 to 177 µM); in assay [3] (setting [5]), 0.25 mg/L (≈ 0.692 µM); in assay [3] (setting [6]), 32 mg/L (≈ 88.6 µM); in assay [3] (setting [7]), more than 64 mg/L. Moreover, the MIC stood at 0.25 mg/L (≈ 0.692 µM) in assay [3] (setting [8]); 64 mg/L (≈ 177 µM) in assay [3] (setting [9]); 64 mg/L (≈ 177 µM) in assay [3] (setting [10]); 4 mg/L (≈ 11.1 µM) in assay [3] (setting [11]); 4 mg/L (≈ 11.1 µM) in assay [3] (setting [12]); 0.25 mg/L (≈ 0.692 µM) in assay [3] (setting [13]). Further, the MIC in assay [3] (setting [14]) was 0.25 mg/L (≈ 0.692 µM); in assay [3] (setting [15]), 16 mg/L (≈ 44.3 µM); in assay [3] (setting [16]), 16 mg/L (≈ 44.3 µM); in assay [3] (setting [17]), more than 64 mg/L; in assay [3] (setting [18]) it was 8 mg/L (≈ 22.1 µM); in assay [3] (setting [19]), 8 mg/L (≈ 22.1 µM). Further, the minimum inhibitory concentration (MIC) in assay [3] (setting [20]) is 4 mg/L (≈ 11.1 µM); in assay [3] (setting [21]), more than 64 mg/L; in assay [3] (setting [22]), 0.25 mg/L (≈ 0.692 µM); in assay [3] (setting [23]), 8 mg/L (≈ 22.1 µM); in assay [3] (setting [24]), more than 64 mg/L; in assay [3] (setting [25]), 16 mg/L (≈ 44.3 µM).
As to `Cc1onc(-c2ccccc2)c1C(=O)N[C@@H]1C(=O)N2[C@@H]1SC(C)(C)[C@@H]2C(=O)O` [Oxacillin], the “MIC quality control range of CLSI” value in assay [4] was 0.12 to 0.5 mg/L. For the same compound, the MIC in assay [2] was 0.25 mg/L (≈ 0.623 µM); in assay [3] (setting [5]) it was more than 8 mg/L; in assay [3] (setting [6]) it was more than 8 mg/L; in assay [3] (setting [7]), more than 8 mg/L; in assay [3] (setting [8]), more than 8 mg/L; in assay [3] (setting [9]), more than 8 mg/L. The MIC in assay [3] (setting [10]), in assay [3] (setting [11]), in assay [3] (setting [12]), in assay [3] (setting [13]), in assay [3] (setting [14]) and in assay [3] (setting [15]) was more than 8 mg/L in each case. Besides, the minimal inhibitory concentration (MIC) in assay [3] (setting [16]), in assay [3] (setting [17]), in assay [3] (setting [18]), in assay [3] (setting [19]), in assay [3] (setting [20]) and in assay [3] (setting [21]) was more than 8 mg/L in each case. Also, the MIC in assay [3] (setting [22]), in assay [3] (setting [23]), in assay [3] (setting [24]) and in assay [3] (setting [25]) was more than 8 mg/L throughout. For the same compound, the “sensitivity of the strains (resistant / sensitive)” value in assay [3] was “resistant”.
